# Laboratory results as given in PMC7144325, “Discovery of novel ATAD2 bromodomain inhibitors that trigger apoptosis and autophagy in breast cells by structure-based virtual screening” (Journal of Enzyme Inhibition and Medicinal Chemistry, 2020).
# “Also recorded” adds a separate entry of the source. Where two headings read alike, the source gives them in different places.
# Legend:
# [1] = set-up: method as in PMID 29043777, PMID 30226378, PMID 31398032; details: in vitro or vivo cellular assays; cited from earlier work
# ATAD2 bromodomain [2] = biological target: T1, ATAD2 bromodomain (Homo sapiens, UniProt Q6PL18); details: cited from earlier work
# T1 sequence (Q6PL18 980-1092 limits assumed): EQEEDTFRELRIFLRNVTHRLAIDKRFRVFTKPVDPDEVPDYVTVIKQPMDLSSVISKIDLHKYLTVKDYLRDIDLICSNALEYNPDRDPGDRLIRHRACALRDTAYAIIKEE
# BET = tested on: BET; set-up: method as in PMID 26230603; details: ATAD2 over BET; cited from earlier work
# ATAD2 bromodomain [3] = biological target: T1, ATAD2 bromodomain; test: TR-FRET assay, ATAD2 bromodomain; type: binding
# Protocol: (§1) The assay was performed by TR-FRET technology using recombinant bromodomain and BET Ligand[27]. The compounds were diluted in 100% DMSO. They were diluted 20 fold in 5% DMSO in Reaction Buffer and 2 µl of the dilution was added to a 20 µl reaction. The reaction mixture incubated for 180 min prior to reading the TR-FRET signal. TR-FRET was recorded as the ratio of the fluorescence of the acceptor and the donor dyes (acceptor/donor). Binding experiments were performed in duplicate at each concentration. The TR-FRET data were analysed using the computer software, Graphpad Prism.
# MDA-MB-231 cells [4] = test: Cell viability assay (MTT), MDA-MB-231; type: cell-based; details: for antiproliferatory inhibition rate in cell viability assay: at 20 µM, MDA-MB-231 cells; for IC50: Homo sapiens, MDA-MB-231, MTT, read-out: IC50 antiproliferative, MDA-MB-231
# Protocol: MDA-MB-231cells were purchased from American Type Culture Collection (ATCC, Manassas, VA, USA). Cells were cultured in DMEM with 10% foetal bovine serum and incubated with 5% CO2. Antibodies used in this study were as follow: ATAD2 (ab176319, abcam), c-Myc (ab32072, abcam), cMyc^Ser62 (ab51156, abcam), Bax(5023, CST), Bcl-2(15071, CST), caspase8(9746, CST), caspase-3 (9665, CST), AKT (4691, CST), mTOR (2983, CST), p-mTOR^Ser2448 (5536,CST), ULK1 (6439, CST), p-ULK1^Ser555 (5869, CST), p62 (5114, CST), Beclin1 (4122, CST), LC3B (3868, CST), β-actin (3700, CST).
# (§2) Cells were dispensed in 96-well plates at a density of 5 × 10^4 cells/ml. After 24 h incubation, cells were treated with different concentrations of compounds for the indicated periods. Cell viability was measured by the MTT assay.
# [5] = set-up: method as in PMID 27530368; details: in vivo as printed; cited from earlier work
# BRD3(2) = biological target: T2, BRD3(2) (Homo sapiens, UniProt Q15059); test: TR-FRET assay, BRD3(2); type: binding
# T2 construct: against the first and second bromodomains of BRD2, BRD3 and BRD4
# T2 sequence (Q15059 306-415 limits assumed): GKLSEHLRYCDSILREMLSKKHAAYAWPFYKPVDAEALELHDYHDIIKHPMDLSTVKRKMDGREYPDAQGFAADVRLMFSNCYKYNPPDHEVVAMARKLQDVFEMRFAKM
# Protocol: as §1
# BRD3(1) = biological target: T3, BRD3(1) (Homo sapiens, UniProt Q15059); test: TR-FRET assay, BRD3(1); type: binding
# T3 construct: against the first and second bromodomains of BRD2, BRD3 and BRD4
# T3 sequence (Q15059 34-140 limits assumed): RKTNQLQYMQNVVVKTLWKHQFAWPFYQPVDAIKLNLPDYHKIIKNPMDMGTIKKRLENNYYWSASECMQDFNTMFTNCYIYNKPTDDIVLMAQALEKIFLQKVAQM
# Protocol: as §1
# BRD2-4 = test: TR-FRET selectivity, statement for BRD2, BRD3 and BRD4 together; type: binding; details: first and second bromodomains
# Protocol: as §1
# [6] = tested on: ATAD2, c-Myc, p-cMyc in MDA-MB-231 cells; test: Western blot of ATAD2, c-Myc and p-cMyc; type: cell-based; details: MDA-MB-231, 1.25, 2.5 and 5.0 µM, 24 h
# Protocol: (§3) Adherent and floating cells were collected after treatment with AM879 for indicated times. Cells were lysed in a lysis buffer consisting of Hepes 50 mM pH 7.4, Triton-X-100 1%, sodium orthovanada 2 mM, sodium fluoride 100 mM, edetic acid 1 mM, PMSF 1 mM, aprotinin (Sigma, MO, USA) 10 mg/L and leupeptin (Sigma) 10 mg/L at 4 °C for 1 h. After 12,000 rpm centrifugation for 15 min, the protein content of supernatant was determined by the Bio-Rad DC protein assay (Bio-Rad Laboratories, Hercules, CA, USA). Equal amounts of the total protein were separated by 10–15% SDS-PAGE and transferred to PVDF membranes, and the membranes were soaked in blocking buffer (5% skimmed milk or BSA). Proteins were detected using primary antibodies, followed by HRP-conjugated secondary antibody and visualised by using ECL as the HRP substrate. Quantity One 4.4 was used to quantify.
# [7] = tested on: PI3K-AKT-mTOR signalling in MDA-MB-231 cells; test: Western blot of PI3K-AKT-mTOR signalling; type: cell-based; details: MDA-MB-231, 1.25, 2.5, 5 µM, 24 h
# Protocol: as §3
# BRD2(2) = biological target: T4, BRD2(2) (Homo sapiens, UniProt P25440); test: TR-FRET assay, BRD2(2); type: binding
# T4 construct: against the first and second bromodomains of BRD2, BRD3 and BRD4
# T4 sequence (P25440 344-453 limits assumed): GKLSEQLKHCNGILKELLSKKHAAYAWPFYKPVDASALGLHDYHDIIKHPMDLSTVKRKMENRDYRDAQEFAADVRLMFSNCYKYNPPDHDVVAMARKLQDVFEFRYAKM
# Protocol: as §1
# BRD4(2) = biological target: T5, BRD4(2) (Homo sapiens, UniProt O60885); test: TR-FRET assay, BRD4(2); type: binding
# T5 construct: against the first and second bromodomains of BRD2, BRD3 and BRD4
# Protocol: as §1
# MDA-MB-231 cells [8] = test: Apoptosis assay, flow cytometry of Annexin-V/PI double staining; type: cell-based; details: MDA-MB-231, 1.25, 2.5 and 5 μM, 24 h
# MDA-MB-231 cells [9] = test: Autophagy assay, GFP/mRFP-LC3 puncta; type: cell-based; details: MDA-MB-231, GFP-mRFP-LC3, 24 h
# [10] = tested on: Bax, Bcl-2, Caspase8, Caspase3 in MDA-MB-231 cells; test: Western blot of Bax, Bcl-2, Caspase8 and Caspase3; type: cell-based; details: MDA-MB-231, 1.25, 2.5 and 5 μM, 24 h
# Protocol: as §3
# BRD4(1) = biological target: T6, BRD4(1) (Homo sapiens, UniProt O60885); test: TR-FRET assay, BRD4(1); type: binding
# T6 construct: against the first and second bromodomains of BRD2, BRD3 and BRD4
# Protocol: as §1
# [11] = tested on: MDA-MB-231, MDA-MB-436, MDA-MB-468, BT474 and MCF-7 cells; test: Anti-proliferation activity on breast cancer cell panel (MTT); type: cell-based; details: MDA-MB-231, MDA-MB-436, MDA-MB-468, BT474 and MCF-7 cells (Figure S1)
# Protocol: as §2
# BRD2(1) = biological target: T7, BRD2(1) (Homo sapiens, UniProt P25440); test: TR-FRET assay, BRD2(1); type: binding
# T7 construct: against the first and second bromodomains of BRD2, BRD3 and BRD4
# T7 sequence (P25440 74-180 limits assumed): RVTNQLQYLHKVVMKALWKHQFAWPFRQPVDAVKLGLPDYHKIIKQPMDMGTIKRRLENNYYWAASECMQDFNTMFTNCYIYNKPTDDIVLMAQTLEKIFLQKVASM
# Protocol: as §1
# MDA-MB-231 cells [12] = test: TUNEL apoptosis assay; type: cell-based; details: MDA-MB-231, 2.5 μM, 24 h
# Protocol: TUNEL staining was also used to detect cell apoptosis. Cells were treated with DMSO or AM879 and then formalin-fixed.
# [13] = tested on: ULK1, p-ULK1, Beclin 1, p62, LC3 in MDA-MB-231 cells; test: Western blot of ULK1, p-ULK1, Beclin 1, SQSTM1/p62 and LC3; type: cell-based; details: MDA-MB-231, 1.25, 2.5, 5 µM, 24 h
# Protocol: as §3
smiles,measurement,setting,value
Cc1ccc(-c2cnc(NC3CC4CCC(N4)C3CCC3CCC(F)(F)CC3)c3[nH]c(=O)c(C)cc23)cn1 (stereo not shown) [compound 26],activity in cellular assays,[1],lack activity
Cc1cncc(-c2cnc(N[C@@H]3CCNC[C@H]3OCC3CCS(=O)(=O)CC3)c3[nH]c(=O)c(C)cc23)c1 [compound 38],ATAD2 potency,ATAD2 bromodomain [2],0.1 µM
same,BET selectivity,BET,100 fold
"COc1cc(Cl)c(C(=O)N[C@@H](CN[C@H]2CC[C@@H](N)CC2)Cc2ccc(C#N)cc2)cc1-c1ccc(CN[C@H](C)c2ccc(C)cc2)o1 [BAY-850, reference compound]",activity in cellular assays,[1],lack activity
same,IC50,ATAD2 bromodomain [3]; read-out: IC50 against ATAD2 bromodomain,0.242 µM
CCn1c(SCC(C)=O)nc2c1c(=O)[nH]c(=O)n2C [AG-690],inhibition at 20 µM,"ATAD2 bromodomain [3]; at 20 µM, read-out: ATAD2 enzyme inhibition rate",79%
same,antiproliferatory inhibition rate in cell viability assay,MDA-MB-231 cells [4],less potency than AM879
CO[C@H]1CNC[C@@H](OCC2CCC(F)(F)CC2)[C@@H]1Nc1ncc(-c2cncc(C)c2)c2cc(C)c(=O)[nH]c12 [GSK8814],antiproliferative activity,[5],weak antiproliferative
CC1=C(C#N)c2nc(N)c(C#N)c(C)c2/C1=C\c1ccc(-c2cc(C(=O)O)ccc2Cl)o1 [AM879],IC50,BRD3(2),> 50 µM
same,IC50,"ATAD2 bromodomain [3]; Table 3, read-out: IC50 ATAD2",3.56 µM
same,IC50,BRD3(1),> 50 µM
same,inhibitory activity against BRD2-4,BRD2-4,no inhibitory activity
same,inhibitory activity against BRD2-4,BRD2-4; listed as AM-879,no activity
same,"expression of ATAD2, c-Myc and p-cMyc",[6],"suppressed the expression of c-Myc; also recorded: inhibited the expression of ATAD2, c-Myc and the phosphorylation of c-Myc"
same,PI3K-AKT-mTOR signalling protein expression,[7],"obviously downregulated expression of PI3K, AKT, mTOR and mTOR^Ser2448"
same,IC50,BRD2(2),> 50 µM
same,IC50,BRD4(2),> 50 µM
same,IC50,MDA-MB-231 cells [4]; 24 h,2.43 µM
same,IC50,MDA-MB-231 cells [4]; 48 h,2.06 µM
same,IC50,MDA-MB-231 cells [4]; 72 h,1.05 µM
same,antiproliferatory inhibition rate in cell viability assay,MDA-MB-231 cells [4],90%
same,apoptotic cells by Annexin-V/PI staining,MDA-MB-231 cells [8],significant increase in early and late apoptotic cells
same,autophagy induction (LC3 puncta),MDA-MB-231 cells [9],obvious aggregation of LC3 puncta
same,autophagy induction (LC3 puncta),MDA-MB-231 cells [9]; listed as AM978,induce autophagy
same,"expression of Bax, Bcl-2, Caspase8 and Caspase3",[10],"elevated the expression of Bax, reduced the expression of Bcl-2, accompanied with the cleavage of caspase3 and caspase8"
same,IC50,BRD4(1),> 50 µM
same,anti-proliferation activity on breast cancer cells,[11],potent antiproliferatory activity
same,IC50,BRD2(1),> 50 µM
same,apoptosis by TUNEL assay,MDA-MB-231 cells [12],obvious FITC fluorescence were aggregated in the nucleus
same,"expression of ULK1, p-ULK1, Beclin 1, SQSTM1/p62 and LC3-II",[13],"elevation of ULK1, p-ULK1, Beclin 1 and LC3-II in a dose-dependent manner, as well as degradation of SQSTM1/p62"
CC1(C2CC2)NC(=O)N(CC(=O)Nc2ccc(Br)c(S(=O)(=O)N3CCCCC3)c2)C1=O (stereo not shown) [compound 23],activity in cellular assays,[1],lack activity
